Legend:
Type in all cases: in vivo
Setaria faberi (SETFA) [1] = assay: Example B post-emergence herbicidal activity, glasshouse pot test; conditions: 312 h, rate 250 g/ha, evaluated after 13 days, read-out: Post-emergence activity SETFA (100=total damage to plant; 0=no damage to plant)
In short: (§1)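 Compound sprayed in acetone/water (50:50) plus 0.5% Tween 20 onto potted soil one day post-sowing, or onto seedlings after 8 days. Scored 0–100 for damage after 13 days.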

[2] = system: Echinochloa crus-galli (ECHCG); assay: as above; conditions: 312 h, rate 250 g/ha, evaluated after 13 days, read-out: Post-emergence activity ECHCG (100=total damage to plant; 0=no damage to plant)
In short: as §1

Avena fatua (AVEFA) [3] = assay: as above; conditions: 312 h, rate 250 g/ha, evaluated after 13 days, read-out: Post-emergence activity AVEFA (100=total damage to plant; 0=no damage to plant)
In short: as §1

[4] = system: Amaranthus retroflexus (AMARE); assay: as above; conditions: 312 h, rate 250 g/ha, evaluated after 13 days, read-out: Post-emergence activity AMARE (100=total damage to plant; 0=no damage to plant)
In short: as §1

[5] = system: Alopecurus myosuroides (ALOMY); assay: as above; conditions: 312 h, rate 250 g/ha, evaluated after 13 days, read-out: Post-emergence activity ALOMY (100=total damage to plant; 0=no damage to plant)
In short: as §1

Setaria faberi (SETFA) [6] = assay: Example B pre-emergence herbicidal activity, glasshouse pot test; conditions: 312 h, rate 250 g/ha, evaluated after 13 days, read-out: Pre-emergence activity SETFA (100=total damage to plant; 0=no damage to plant)
In short: as §1

[7] = system: Echinochloa crus-galli (ECHCG); assay: as above; conditions: 312 h, rate 250 g/ha, evaluated after 13 days, read-out: Pre-emergence activity ECHCG (100=total damage to plant; 0=no damage to plant)
In short: as §1

Avena fatua (AVEFA) [8] = assay: as above; conditions: 312 h, rate 250 g/ha, evaluated after 13 days, read-out: Pre-emergence activity AVEFA (100=total damage to plant; 0=no damage to plant)
In short: as §1

[9] = system: Amaranthus retroflexus (AMARE); assay: as above; conditions: 312 h, rate 250 g/ha, evaluated after 13 days, read-out: Pre-emergence activity AMARE (100=total damage to plant; 0=no damage to plant)
In short: as §1

[10] = system: Alopecurus myosuroides (ALOMY); assay: as above; conditions: 312 h, rate 250 g/ha, evaluated after 13 days, read-out: Pre-emergence activity ALOMY (100=total damage to plant; 0=no damage to plant)
In short: as §1

SMILES | pest or weed control at 250 g/ha (Setaria faberi (SETFA) [1]) [%] | pest or weed control at 250 g/ha [2] [%] | pest or weed control at 250 g/ha (Avena fatua (AVEFA) [3]) [%] | pest or weed control at 250 g/ha [4] [%] | pest or weed control at 250 g/ha [5] [%] | pest or weed control at 250 g/ha (Setaria faberi (SETFA) [6]) [%] | pest or weed control at 250 g/ha [7] [%] | pest or weed control at 250 g/ha (Avena fatua (AVEFA) [8]) [%] | pest or weed control at 250 g/ha [9] [%] | pest or weed control at 250 g/ha [10] [%]
CCc1ccc(-c2ccc(Cl)c(Cl)c2)cc1C1=C(O)[C@H]2CC[C@H](O2)C1=O [Compound A-132] | 90 | 70 | 30 | 0 | 20 | 0 | 0 | 0 | 0 | 0
CCc1ccc(-c2ccc(Cl)cc2Cl)cc1C1=C(O)[C@@]2(C)CC[C@H](O2)C1=O (single isomer, unassigned) [Compound A-128] | 100 | 100 | 90 | 0 | 80 | 90 | 70 | 80 | 0 | 40
CCc1ccc(-c2ccc(Cl)c(Cl)c2Cl)cc1C1=C(O)C(C)(C)OC(C)(C)C1=O [Compound A-137] | 100 | 100 | 90 | 30 | 90 | 100 | 100 | 90 | 0 | 70
CC(=O)OC1=C(c2cc(-c3ccc(Cl)cn3)ccc2C)C(=O)C(C)(C)OC1(C)C [Compound D-28] | 80 | 90 | 50 | 0 | 80 | 80 | 20 | 40 | 0 | 30
COc1ccc(-c2ccc(Cl)cc2F)cc1C1=C(O)C(C)(C)OC(C)(C)C1=O [Compound A-103] | 100 | 100 | 0 | 0 | 10 | 0 | 0 | 0 | 0 | 0
CCc1ccc(-c2ccc(Cl)c(F)c2)cc1C1=C(O)[C@@]2(C)CC[C@H](O2)C1=O (single isomer, unassigned) [Compound A-125] | 100 | 100 | 90 | 0 | 100 | 100 | 90 | 80 | 0 | 70
CCc1ccc(-c2ccc(Cl)cc2Cl)cc1C1=C(O)C(C)(C)S(=O)(=O)C(C)(C)C1=O [Compound C-11] | 30 | 80 | 60 | 20 | 70 | 0 | 0 | 80 | 0 | 0
CCc1ccc(-c2ccc(Cl)nc2)cc1C1=C(O)C(C)(C)OC(C)(C)C1=O [Compound A-76] | 100 | 100 | 70 | 0 | 90 | 100 | 70 | 50 | 0 | 60
CCc1ccc(-c2ccc(Cl)cc2Cl)cc1C1=C(O)C(C)(C)[S+]([O-])C(C)(C)C1=O (single isomer, unassigned) [Compound C-10] | 20 | 70 | 50 | 0 | 20 | 0 | 40 | 20 | 0 | 20

Reference: US8680012B2, “4-phenyl-pyrane-3,5-diones,4-phenyl-thiopyrane-3,6-diones and cyclohexanetriones as novel herbicides” (Syngenta Crop Protection LLC, priority 2006, dated 2014)
